From ChEMBL document CHEMBL4414664, “An Effective Strategy for Identification of Highly Unstable Bacillaenes” (2019)
Calls of active or inactive are those of the source. No cut-off for these calls is given here.

How the values were obtained:
Salmonella typhimurium = experiment: Antibacterial activity against Salmonella typhimurium CCARM 8250 assessed as inhibition zone at 10 mg/ml incubated for 18 hrs by radial diffusion assay; assay type: functional, organism-based; details: Salmonella enterica subsp. enterica serovar Typhimurium
Escherichia coli = experiment: Antibacterial activity against Escherichia coli CCARM 1009 assessed as inhibition zone at 10 mg/ml incubated for 18 hrs by radial diffusion assay; assay type: functional, organism-based
Enterococcus faecium [1] = experiment: Antibacterial activity against Enterococcus faecium CCARM 5203 assessed as inhibition zone at 10 mg/ml incubated for 18 hrs by radial diffusion assay; assay type: functional, organism-based
Enterococcus faecium [2] = experiment: Antibacterial activity against Enterococcus faecium CCARM 5203 assessed as reduction in bacterial growth at 12.5 ug/ml incubated for 18 hrs by serial dilution method relative to control; assay type: functional

| Structure (SMILES) | inhibition zone (IZ) (Salmonella typhimurium) | inhibition zone (IZ) (Escherichia coli) | inhibition zone (IZ) (Enterococcus faecium [1]) | growth inhibition (GI) (Enterococcus faecium [2]) | inhibition of growth at 12.5 µg/mL (Enterococcus faecium [2]; CCARM 5203, 18 h, read-out: GI) [%] |
| --- | --- | --- | --- | --- | --- |
| C/C(=C/C=C/C=C/C(C)C(=O)O)NC(=O)CC(O)\C(C)=C/C=C\C=C(C)\C=C\C=C\CCCNC(=O)C(CC(C)C)O[C@@H]1O[C@H](CO)[C@@H](O)[C@H](O)[C@H]1O (some centres undefined) | inactive | inactive | inactive |  |  |
| C/C(=C/C=C/C=C/C(C)C(=O)O[C@@H]1O[C@H](CO)[C@@H](O)[C@H](O)[C@H]1O)NC(=O)CC(O)\C(C)=C/C=C\C=C(C)\C=C\C=C/C=C/CNC(=O)C(O)CC(C)C (some centres undefined) | inactive | inactive | inactive |  |  |
| C/C(=C/C=C/C=C/C(C)C(=O)O)NC(=O)CC(O)\C(C)=C/C=C\C=C(C)\C=C\C=C/CCCNC(=O)C(O)CC(C)C (centres undefined) |  |  |  | Active |  |
| C/C(=C/C=C/C=C/C(C)C(=O)O)NC(=O)CC(O)\C(C)=C/C=C\C=C(C)\C=C\C=C/C=C/CNC(=O)C(CC(C)C)O[C@@H]1O[C@H](CO)[C@@H](O)[C@H](O)[C@H]1O (some centres undefined) | inactive | inactive | inactive | inactive |  |
| C/C(=C/C=C/C=C/C(C)C(=O)O)NC(=O)CC(O)\C(C)=C/C=C\C=C(C)\C=C\C=C/CCCNC(=O)C(CC(C)C)O[C@@H]1O[C@H](CO)[C@@H](O)[C@H](O)[C@H]1O (some centres undefined) | inactive | inactive | inactive | inactive |  |
| C/C(=C/C=C/C=C/C(C)C(=O)O)NC(=O)CC(O)\C(C)=C/C=C\C=C(C)\C=C\C=C/C=C/CNC(=O)C(O)CC(C)C (centres undefined) | Active | Active | Active |  | > 80 |
